Laboratory results reported in US8846933B2, “N-link hydroxamic acid derivatives useful as antibacterial agents” (Pfizer Inc., priority 2009, dated 2014).

Tests used:
[1] = test system: Escherichia coli EC-1: VOGEL, mouse virulent; test: MIC determination (CLSI), strain EC-1; type: cell-based; conditions: strain EC-1, unit assumed
Outline: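 The mouse-virulent VOGEL isolate of E. coli, EC-1, served as test organism. Minimum inhibitory concentration was measured by CLSI dilution methodology (M7-A7; M100-S18 standards).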

[2] = test system: Pseudomonas aeruginosa UI-18: Wild-type (PA-7); test: MIC determination (CLSI), strain PA-7; type: cell-based; conditions: strain PA-7, unit assumed
Outline: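 Strain tested was P. aeruginosa UI-18, a wild-type isolate labelled PA-7. Minimum inhibitory concentrations followed CLSI dilution methodology for aerobically growing bacteria (M7-A7, M100-S18).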

[3] = generated in the same manner as in Table 4

| Compound | EC-1 (MIC) [1] | PA-7 (MIC) [2] | EC-1 (MIC) [1, 3] | PA-7 (MIC) [2, 3] |
| --- | --- | --- | --- | --- |
| Cc1c(-c2cccc(Cl)c2Cl)ccn(CC[C@](C)(C(=O)NO)S(C)(=O)=O)c1=O [Example 414, (2R)-4-[4-(2,3-dichlorophenyl)-3-methyl-2-oxopyridin-1(2H)-yl]-N-hydroxy-2-methyl-2-(methylsulfonyl)butanamide] | 2 µg/mL | 8 µg/mL | – | – |
| CC(CCn1ccc(-c2ccc(OCCO)c(Cl)c2)cc1=O)(C(=O)NO)S(C)(=O)=O (stereo not shown) [Example 236, 4-{4-[3-chloro-4-(2-hydroxyethoxy)phenyl]-2-oxopyridin-1(2H)-yl}-N-hydroxy-2-methyl-2-(methylsulfonyl)butanamide] | 32 µg/mL | 16 µg/mL | – | – |
| CC(CCn1ccc(-c2ccc(OCCCN3CCNC(=O)C3)cc2)cc1=O)(C(=O)NO)S(C)(=O)=O (stereo not shown) [Example 86, N-hydroxy-2-methyl-2-(methylsulfonyl)-4-[2-oxo-4-{4-[3-(3-oxopiperazin-1-yl)propoxy]phenyl}pyridin-1(2H)-yl]butanamide] | – | – | 16 µg/mL | 32 µg/mL |
| C[C@@](CCn1ccc(-c2ccc(C3(O)CCC3)cc2)cc1=O)(C(=O)NO)S(C)(=O)=O [Example 351, (2R)-N-hydroxy-4-{4-[4-(1-hydroxycyclobutyl)phenyl]-2-oxopyridin-1(2H)-yl}-2-methyl-2-(methylsulfonyl)butanamide] | 16 µg/mL | 16 µg/mL | – | – |
| CC(CCn1ccc(-c2ccc(OCCCO)c(F)c2)cc1=O)(C(=O)NO)S(C)(=O)=O (stereo not shown) [Example 247, 4-{4-[3-fluoro-4-(3-hydroxypropoxy)phenyl]-2-oxopyridin-1(2H)-yl}-N-hydroxy-2-methyl-2-(methylsulfonyl)butanamide] | 4 µg/mL | 8 µg/mL | – | – |
| Cc1cc(OCCO)ccc1-c1ccn(CCC(C)(C(=O)NO)S(C)(=O)=O)c(=O)c1 (stereo not shown) [Example 237, N-hydroxy-4-{4-[4-(2-hydroxyethoxy)-2-methylphenyl]-2-oxopyridin-1(2H)-yl}-2-methyl-2-(methylsulfonyl)butanamide] | > 64 µg/mL | 32 µg/mL | – | – |
| COc1ccc(-c2ccn(CCC(C)(C(=O)NO)S(C)(=O)=O)c(=O)c2)c(F)c1F (stereo not shown) [Example 123, 4-[4-(2,3-difluoro-4-methoxyphenyl)-2-oxopyridin-1(2H)-yl]-N-hydroxy-2-methyl-2-(methylsulfonyl)butanamide] | – | – | 2 µg/mL | 2 µg/mL |
| CC(C)c1cccc(-c2ccn(CC[C@](C)(C(=O)NO)S(C)(=O)=O)c(=O)c2)c1 [Example 466] | 2 µg/mL | 4 µg/mL | – | – |
| CC(CCn1ccc(-c2ccc3c(c2)CCO3)cc1=O)(C(=O)NO)S(C)(=O)=O (stereo not shown) [Example 164, 4-[4-(2,3-dihydro-1-benzofuran-5-yl)-2-oxopyridin-1(2H)-yl]-N-hydroxy-2-methyl-2-(methylsulfonyl)butanamide] | – | – | 8 µg/mL | 32 µg/mL |
| CC(CCn1ccc(-c2ccc(Cl)cc2)cc1=O)(C(=O)NO)S(C)(=O)=O (stereo not shown) [Example 141, 4-[4-(4-chlorophenyl)-2-oxopyridin-1(2H)-yl]-N-hydroxy-2-methyl-2-(methylsulfonyl)butanamide] | – | – | 1 µg/mL | 1 µg/mL |
| Cc1cc(F)cc(-c2ccn(CCC(C)(C(=O)NO)S(C)(=O)=O)c(=O)c2)c1 (stereo not shown) [Example 112, 4-[4-(3-fluoro-5-methylphenyl)-2-oxopyridin-1(2H)-yl]-N-hydroxy-2-methyl-2-(methylsulfonyl)butanamide] | – | – | 4 µg/mL | 4 µg/mL |
| Cc1nncn1-c1ccc(-c2ccn(CC[C@](C)(C(=O)NO)S(C)(=O)=O)c(=O)c2)cc1 [Example 383, (2R)-N-hydroxy-2-methyl-2-(methylsulfonyl)-4-{4-[4-(3-methyl-4H-1,2,4-triazol-4-yl)phenyl]-2-oxopyridin-1(2H)-yl}butanamide] | > 64 µg/mL | > 64 µg/mL | – | – |
| C[C@@](CCn1ccc(-c2ccc(OCCN3CCC(O)CC3)c(Cl)c2Cl)cc1=O)(C(=O)NO)S(C)(=O)=O [Example 303, (2R)-4-[4-{2,3-dichloro-4-[2-(4-hydroxypiperidin-1-yl)ethoxy]phenyl}-2-oxopyridin-1(2H)-yl]-N-hydroxy-2-methyl-2-(methylsulfonyl)butanamide] | 32 µg/mL | 16 µg/mL | – | – |
| COc1cc(-c2ccn(CCC(C)(C(=O)NO)S(C)(=O)=O)c(=O)c2)ccc1OCCCCO (stereo not shown) [Example 242, N-hydroxy-4-{4-[4-(4-hydroxybutoxy)-3-methoxyphenyl]-2-oxopyridin-1(2H)-yl}-2-methyl-2-(methylsulfonyl)butanamide] | 32 µg/mL | 64 µg/mL | – | – |
| COCc1ccccc1-c1ccn(CCC(C)(C(=O)NO)S(C)(=O)=O)c(=O)c1 (stereo not shown) [Example 191, N-hydroxy-4-{4-[2-(methoxymethyl)phenyl]-2-oxopyridin-1(2H)-yl}-2-methyl-2-(methylsulfonyl)butanamide] | > 64 µg/mL | > 64 µg/mL | – | – |
| CC(CCn1ccc(-c2ccccc2)cc1=O)(C(=O)NO)S(C)(=O)=O (stereo not shown) [Example 98, N-hydroxy-2-methyl-2-(methylsulfonyl)-4-(2-oxo-4-phenylpyridin-1(2H)-yl)butanamide] | – | – | 64 µg/mL | 32 µg/mL |

| Compound | EC-1 (MIC) [1] | PA-7 (MIC) [2] | EC-1 (MIC) [1, 3] | PA-7 (MIC) [2, 3] |
| --- | --- | --- | --- | --- |
| CCOc1ccc(-c2ccn(CCC(C)(C(=O)NO)S(C)(=O)=O)c(=O)c2)cn1 (stereo not shown) [Example 185, 4-(6-ethoxy-2′-oxo-3,4′-bipyridin-1′(2′H)-yl)-N-hydroxy-2-methyl-2-(methylsulfonyl)butanamide] | 2 µg/mL | 4 µg/mL | – | – |
| COc1ccc2ccc(-c3ccn(CCC(C)(C(=O)NO)S(C)(=O)=O)c(=O)c3)cc2c1 (stereo not shown) [Example 288, N-hydroxy-4-[4-(7-methoxy-2-naphthyl)-2-oxopyridin-1(2H)-yl]-2-methyl-2-(methylsulfonyl)butanamide] | 0.125 µg/mL | 4 µg/mL | – | – |
| C[C@@](CCn1ccc(-c2ccc3[nH]c(=O)ccc3c2)cc1=O)(C(=O)NO)S(C)(=O)=O [Example 327, (2R)-N-hydroxy-2-methyl-2-(methylsulfonyl)-4-[2-oxo-4-(2-oxo-1,2-dihydroquinolin-6-yl)pyridin-1(2H)-yl]butanamide] | 4 µg/mL | > 64 µg/mL | – | – |
| CC(=O)c1ccc(-c2ccn(CCC(C)(C(=O)NO)S(C)(=O)=O)c(=O)c2)cc1O (stereo not shown) [Example 99, 4-[4-(4-acetyl-3-hydroxyphenyl)-2-oxopyridin-1(2H)-yl]-N-hydroxy-2-methyl-2-(methylsulfonyl)butanamide] | – | – | 8 µg/mL | 16 µg/mL |
| Cc1ccc(-c2ccn(CCC(C)(C(=O)NO)S(C)(=O)=O)c(=O)c2)o1 (stereo not shown) [Example 158] | – | – | 64 µg/mL | 64 µg/mL |
| CCOc1ncc(-c2ccn(CC[C@](C)(C(=O)NO)S(C)(=O)=O)c(=O)c2)cn1 [Example 404, (2R)-4-[4-(2-ethoxypyrimidin-5-yl)-2-oxopyridin-1(2H)-yl]-N-hydroxy-2-methyl-2-(methylsulfonyl)butanamide] | > 64 µg/mL | > 64 µg/mL | – | – |
| C[C@@](CCn1ccc(-c2ccc(C(F)(F)F)nc2)cc1=O)(C(=O)NO)S(C)(=O)=O [Example 331] | 0.25 µg/mL | 32 µg/mL | – | – |
| CN(C)c1ccc(-c2ccn(CCC(C)(C(=O)NO)S(C)(=O)=O)c(=O)c2)cn1 (stereo not shown) [Example 116, 4-[6-(dimethylamino)-2′-oxo-3,4′-bipyridin-1′(2′H)-yl]-N-hydroxy-2-methyl-2-(methylsulfonyl)butanamide] | – | – | 16 µg/mL | 64 µg/mL |
| CC(CCn1ccc(-c2cccc(O)c2)cc1=O)(C(=O)NO)S(C)(=O)=O (stereo not shown) [Example 210, N-hydroxy-4-[4-(3-hydroxyphenyl)-2-oxopyridin-1(2H)-yl]-2-methyl-2-(methylsulfonyl)butanamide] | > 64 µg/mL | > 64 µg/mL | – | – |
| COC(=O)CCc1ccc(-c2ccn(CC[C@](C)(C(=O)NO)S(C)(=O)=O)c(=O)c2)cc1 [Example 478] | 2 µg/mL | 1 µg/mL | – | – |
| CC(=O)c1cccc(-c2ccn(CCC(C)(C(=O)NO)S(C)(=O)=O)c(=O)c2)c1 (stereo not shown) [Example 127, 4-[4-(3-acetylphenyl)-2-oxopyridin-1(2H)-yl]-N-hydroxy-2-methyl-2-(methylsulfonyl)butanamide] | – | – | 16 µg/mL | 32 µg/mL |
| CC(CCn1ccc(-c2ccccc2C(F)(F)F)cc1=O)(C(=O)NO)S(C)(=O)=O (stereo not shown) [Example 183, N-hydroxy-2-methyl-2-(methylsulfonyl)-4-{2-oxo-4-[2-(trifluoromethyl)phenyl]pyridin-1(2H)-yl}butanamide] | – | – | 32 µg/mL | 32 µg/mL |
| Cc1cc(-c2ccn(CCC(C)(C(=O)NO)S(C)(=O)=O)c(=O)c2)ccc1OCCCO (stereo not shown) [Example 248, N-hydroxy-4-{4-[4-(3-hydroxypropoxy)-3-methylphenyl]-2-oxopyridin-1(2H)-yl}-2-methyl-2-(methylsulfonyl)butanamide] | 2 µg/mL | 4 µg/mL | – | – |
| CN1Cc2cc(-c3ccn(CCC(C)(C(=O)NO)S(C)(=O)=O)c(=O)c3)ccc2C1=O (stereo not shown) [Example 179, N-hydroxy-2-methyl-4-[4-(2-methyl-1-oxo-2,3-dihydro-1H-isoindol-5-yl)-2-oxopyridin-1(2H)-yl]-2-(methylsulfonyl)butanamide] | – | – | > 64 µg/mL | > 64 µg/mL |
| COc1ccc(-c2ccn(CC[C@](C)(C(=O)NO)S(C)(=O)=O)c(=O)c2)cn1 [Example 285, (2R)-N-hydroxy-4-(6-methoxy-2′-oxo-3,4′-bipyridin-1′(2′H)-yl)-2-methyl-2-(methylsulfonyl)butanamide] | 4 µg/mL | 4 µg/mL | – | – |
| COc1ncccc1-c1ccn(CCC(C)(C(=O)NO)S(C)(=O)=O)c(=O)c1 (stereo not shown) [Example 182, N-hydroxy-4-(2-methoxy-2′-oxo-3,4′-bipyridin-1′(2′H)-yl)-2-methyl-2-(methylsulfonyl)butanamide] | – | – | > 64 µg/mL | 64 µg/mL |
